According to US8053573B2, “Monomer 5, 6-diphenyl-1.2.4-traizinic derivatives and the use thereof” (Pierre Fabre Dermo-Cosmetique, priority 2004, dated 2011):

What was measured:
Type in all cases: physicochemical
[1] = Photostability in solution in a chemical solvent (Suntest CPS+); conditions: 25 μg deposited from methanol, absorbance vs non-irradiated control, in % (unit assumed); for Photostability at 10 MED mean: Suntest irradiation 10 MED; for Photostability at 20 MED mean: Suntest irradiation 20 MED
Description: A Suntest CPS+ (Atlas, Linsengenicht/Altenhasslan, Germany) was used. The Suntest makes it possible to reproduce the solar spectrum and thus to carry out exposures inside at any time without weather constraints.
The radiance of the solar simulator was carefully measured with a spectroradiometer (MSS 2044, Bielefeld, Germany). UVB and UVA intensities were 0.49 mW/cm^2 and 6.32 mW/cm^2, respectively. The MED value defined by COLIPA is 5.6 J/cm^2 in total UV (22). The UV total (UVA+UVB) accounts for 14.8% of the energy delivered by the lamp (power 460 W/m^2). An irradiation dose equivalent to 1 MED corresponds to 37.83 J/cm^2 (in total spectrum) delivered by the lamp.
The Suntest test duration is calculated using the following formula: t=H/E with: […]
The solutions of the compounds are prepared at a concentration of 500 μg/ml in methanol. 50 μl (25 μg) of each solution are deposited in a crystallizer, then irradiated in the Suntest at 5, 10 and/or 20 MED. A non-irradiated control is prepared (deposit of 50 μl of solution and addition of 2.450 ml of methanol). The solvent evaporates during irradiation and the products are taken up in 2.5 ml of methanol. After irradiation, the absorbance of each solution is measured with the UV-visible spectrophotometer (Varian CARY 50 Scan).

[2] = Spectral characteristics: molar extinction coefficient and specific absorbance; conditions: ethyl acetate, 10 μg/ml; for Maximum specific absorbance UVC: A1cm^1%
[3] = as above; conditions: ethyl acetate, 10 μg/ml; for Maximum specific absorbance UVA / Maximum specific absorbance UVB: A1cm^1%
Description: The calculation of the molar extinction coefficient (ε) is made from the Beer-Lambert law:
[formula] Wherein: A=absorbance I0=intensity of the incident light I=intensity of the transmitted light ε=molar extinction (or molar absorbance) coefficient in M^−1 cm^−1 l=path length in cm c=concentration in mol/l
The molar extinction coefficient can be expressed with respect to a given mass of the product. It thus makes it possible to be able to compare the coefficients of extinction between products for the same given quantity. This quantity is 1% by weight. The molar extinction coefficient thus becomes the specific absorbance (A1cm^1%).
[formula] Wherein: A1cm^1%=specific absorbance ε=molar extinction coefficient M=molar mass
The spectral characteristics of the compounds in comparison with commercial filters at a concentration of 10 μg/ml are summarized in tables 2-1 and 2-2.
Procedure: The products are dissolved in ethyl acetate to a concentration of 10 μg/ml. The spectra are measured using a dual-beam spectrophotometer (Varian CARY 50 Scan) between 290 nm and 400 nm.

[4] = Spectral distribution in UVA and UVB (290-400 nm); conditions: range from 290 nm to 400 nm
Description: The products tested are classified according to spectral distribution in UVA and UVB in a range from 290 nm to 400 nm.
It is possible to differentiate them according to their spectral distribution:
Products with a narrow spectrum: • Products absorbing in the range between 280 nm and 320 nm (UVB) • Products absorbing in the range between 320 nm and 400 nm (UVA) Products with a broad spectrum: • Products absorbing in UVB (280-320 nm) and UVA-II […] • Products covering UVB and UVA (280-400 nm).

SMILES	Photostability at 10 MED mean [1]	Photostability at 20 MED mean [1]	Maximum specific absorbance UVC [2]	Maximum molar extinction coefficient UVC [2]	Wavelength of maximum molar extinction coefficient UVC [2]	Wavelength of maximum specific absorbance UVC [2]	Maximum specific absorbance UVA [3]	Maximum molar extinction coefficient UVA [3]	Wavelength of maximum molar extinction coefficient UVA [3]	Wavelength of maximum specific absorbance UVA [3]	Maximum specific absorbance UVB [3]	Maximum molar extinction coefficient UVB [3]	Wavelength of maximum molar extinction coefficient UVB [3]	Wavelength of maximum specific absorbance UVB [3]	Spectral distribution [4]
Oc1ccccc1-c1nnc(-c2ccccc2)c(-c2ccccc2)n1 [JR67, 3-(2-hydroxyphenyl)-5,6-diphenyl-1,2,4-triazine]			811	26300 M⁻¹ cm⁻¹	at 280	at 280	502	16300 M⁻¹ cm⁻¹	at 330	at 330					
COc1ccc(-c2nnc(-c3ccc(OC)cc3)c(-c3ccc(OC)cc3)n2)cc1 [JR70, 3-(4-methoxyphenyl)-5,6-bis(4-methoxyphenyl)-1,2,4-triazine]	44.51	30.83									982	29200 M⁻¹ cm⁻¹	at 310	at 310	absorb in UVB
COc1ccc(-c2nnc(-c3ccccc3O)nc2-c2ccc(OC)cc2)cc1 [JR89, 3-(2-hydroxyphenyl)-5,6-bis(4-methoxyphenyl)-1,2,4-triazine]	97.39	98.72	502	19300 M⁻¹ cm⁻¹	at 280	at 280	526 at	20300 M⁻¹ cm⁻¹	at 335	335					absorb in UVB (280-320 nm) and UVA-II (280-340 nm)
COc1ccc(-c2nnc(-c3ccccc3C#N)nc2-c2ccc(OC)cc2)cc1 [JR114, 3-(2-cyanophenyl)-5,6-bis(4-methoxyphenyl)-1,2,4-triazine]	92.07	91.43					661	26000 M⁻¹ cm⁻¹	at 325	at 352					absorb in UVB and UVA
COc1ccc(-c2nnc(-c3cc(O)c(O)c(O)c3)nc2-c2ccc(OC)cc2)cc1 [JR115, 3-(3,4,5-hydroxyphenyl)-5,6-bis(4-methoxyphenyl)-1,2,4-triazine]	57.63	46.42									747	34300 M⁻¹ cm⁻¹	at 310	at 310	absorb in UVB (280-320 nm) and UVA-II (280-340 nm)

More lines, main results first:

Photostability at 10 MED mean [1]	Photostability at 20 MED mean [1]	Maximum specific absorbance UVC [2]	Maximum molar extinction coefficient UVC [2]	Wavelength of maximum molar extinction coefficient UVC [2]	Wavelength of maximum specific absorbance UVC [2]	Maximum specific absorbance UVA [3]	Maximum molar extinction coefficient UVA [3]	Wavelength of maximum molar extinction coefficient UVA [3]	Wavelength of maximum specific absorbance UVA [3]	Maximum specific absorbance UVB [3]	Maximum molar extinction coefficient UVB [3]	Wavelength of maximum molar extinction coefficient UVB [3]	Wavelength of maximum specific absorbance UVB [3]	SMILES	Spectral distribution [4]
82.86	57.37													CCN(CC)c1ccc(-c2nnc(O)nc2-c2ccc(N(CC)CC)cc2)cc1 [JR18, 3-hydroxy-5,6-bis(4-diethylaminophenyl)-1,2,4-triazine]	
98.2	95.33	702	22800 M⁻¹ cm⁻¹	at 280	at 280	424	13800 M⁻¹ cm⁻¹	at 330	at 330					Oc1ccc(-c2nnc(-c3ccccc3)c(-c3ccccc3)n2)cc1 [JR68, 3-(4-hydroxyphenyl)-5,6-diphenyl-1,2,4-triazine]	absorb in UVB (280-320 nm) and UVA-II (280-340 nm)
